# Experimental data reported in US7285619B2, “Echinocandin derivatives, their method of preparation and their application as anti-fungal agents” (Aventis Pharma S.A., priority 1997, dated 2007).
# Test system: glucane Synthesis of Candida albicans
# Assay: Inhibition of the glucane synthesis of Candida albicans (membrane preparation, 14C-UDP glucose incorporation)
# Format: biochemical
# Details: purified Candida albicans membranes, 25° C., 1 hour, result in words
# Description: Tablets have been prepared containing: • The product of example 14 . . . 150 mg • Excipient q.s.p. . . . 1 g (Detail of the excipient: starch, talc, magnesium stearate). Pharmacological Study A—Inhibition of the glucane Synthesis of Candida albicans.
# The membranes of Candida albicans are purified according to the process described by Tang and al Antimicrob. Agents Chemother 35, 99-103, 1991. 22.5 μg of membrane proteins are incubated in a mixture of 2 Mm of 14C-UDP glucose (specific activity=0.34 mCi./mmol, 50 μg of α-amylase, 1 Mm of dithiotreitol (DTT), 1 Mm EDTA, 100 Mm NaF, 7 μM of GTP-γ-S, 1M of sucrose and 5 oMm OF Ttris-HCL (pH 7.8) in a volume of 100 μl. The medium is incubated at 25° C. for 1 hour and the reaction terminated by addition of TCA to a final concentration of 5%. The reaction medium is transferred onto a pre-humidified glass fibre filter. The filter is washed, dried and its radioactivity is counted.
# Mulundocandin is used as positive control.
# The control of the medium is carried out with the same quantity of DMSO 1%.
row,Compound,activity in the test of inhibition of the glucane synthesis of Candida albicans
1,"CCCCCCCCOc1ccc(-c2ccc(C(=O)NC3CC(NCCN)CNC(=O)C4C(O)C(C)CN4C(=O)C(CO)NC(=O)C(C(O)Cc4ccc(O)cc4)NC(=O)C4CC(O)CN4C(=O)C(C(C)O)NC3=O)cc2)cc1.O=C(O)C(F)(F)F (single isomer, unassigned; isomer a) [Example 14, Trifluoroacetate of 1-[4-[(2-aminoethyl)amino]N2-[[4′-(octyloxy)[1.1′-biphenyl]-4-yl]carbonyl]-L-ornithine]4-[4-(4-hydroxyphenyl)-L-threonine]-5-L Serine Echinocandin B (Isomer A)]",good activity
2,(±) Trifluoroacetate of 1-[4-[(aminoiminomethyl) Hydrazono]-N2-(12-methyl-1-oxotetradecyl)-L-ornithine]4-[4-(4-hydroxyphenyl)-L-threonine]-5-L Serine Echinocandin B [Example 11],good activity
3,Trifluoroacetate of 1-[4-[(2-aminoethyl)amino]-N2-(12-methyl-1-oxotetradecyl)-L-ornithine]4-[4-(4-hydroxyphenyl)-L-threonine]-5-L Serine Echinocandin B (Isomer A and Isomer B) [Example 9],good activity
